Source: article PMC11460632, “Chemical modification of hyaluronan oligosaccharides differentially modulates hyaluronan–hyaladherin interactions” (The Journal of Biological Chemistry, 2024)
Entries after “also recorded” stand apart in the source; their conditions may differ. Read-outs that look alike come from different tables or passages of the source.

Legend:
hisCD44_HABD^20–169 = target: T1, hisCD44_HABD^20–169 (Homo sapiens, UniProt P16070); assay: MST of HA oligosaccharides binding to hisCD44_HABD^20–169; conditions: for Kd: 10 mM Hepes pH 7.5, 150 mM NaCl, 0.05% Tween-20, 25 °C, three titrations, read-out: KD; for % Binding affinity hisCD44_HABD^20–169: Table 6, relative to unmodified oligosaccharide of the same length, by MST
T1 construct: A novel construct consisting of residues 20 to 169 of human CD44 and an N-terminal six-histidine tag; made in house
T1 sequence (P16070 20-169): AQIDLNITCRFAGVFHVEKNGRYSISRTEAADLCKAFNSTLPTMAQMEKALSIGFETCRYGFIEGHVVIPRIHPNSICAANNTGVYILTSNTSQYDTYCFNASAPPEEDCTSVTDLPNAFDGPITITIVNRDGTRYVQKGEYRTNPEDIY
Protocol: For hisCD44_HABD^20–169, interactions with HA oligosaccharides were assessed using MST. Protein (200 nM) was labeled with 5 μM red-Tris-NTA-650 dye following the manufacturer’s instructions in 10 mM Hepes, pH 7.4, 150 mM NaCl, 0.05% (v/v) Tween-20 (interaction buffer). Stock solutions of HA oligosaccharides (5 mM in interaction buffer) were serially diluted (1:1 in interaction buffer) 16 times before each concentration was mixed with an equal volume of labeled protein (10 nM final concentration hisCD44_HABD^20–169). Samples were loaded into standard glass capillaries (NanoTemper) and thermophoresis measured at 25 °C (with active temperature control) using a Monolith NT.115pico instrument (NanoTemper) running NT Control software (version 1.0.1). All experiments were performed in triplicate and data analyzed with the “KD fit model” in the NT Analysis software (version 2.0.2).

recombinant human TSG-6 = target: T2, recombinant human TSG-6 (Homo sapiens, UniProt P19827+P98066); assay: In vitro HC-transfer assay (IαI + rhTSG-6, Western blot anti-HC1); assay type: biochemical; conditions: 15 μM HA, 1.8 μM IαI, rhTSG-6, 2 h at 37 °C; for Substrate for HC transfer: Table 6; for Activity as substrate for HC transfer (text): Western blot anti-HC1
T2 construct: TSG-6–mediated HC-transfer assays (using full-length TSG6); purchased R&D Systems
T2 sequence (P98066 18-277): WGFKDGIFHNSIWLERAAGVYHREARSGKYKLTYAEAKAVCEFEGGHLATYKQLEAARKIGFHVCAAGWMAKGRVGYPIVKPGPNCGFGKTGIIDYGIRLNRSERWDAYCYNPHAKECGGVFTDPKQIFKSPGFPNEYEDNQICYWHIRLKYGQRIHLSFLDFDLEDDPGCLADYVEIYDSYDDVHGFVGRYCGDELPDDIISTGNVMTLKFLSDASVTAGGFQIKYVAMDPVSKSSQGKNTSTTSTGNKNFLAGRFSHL
T2 sequence (P19827 35-672 limits assumed): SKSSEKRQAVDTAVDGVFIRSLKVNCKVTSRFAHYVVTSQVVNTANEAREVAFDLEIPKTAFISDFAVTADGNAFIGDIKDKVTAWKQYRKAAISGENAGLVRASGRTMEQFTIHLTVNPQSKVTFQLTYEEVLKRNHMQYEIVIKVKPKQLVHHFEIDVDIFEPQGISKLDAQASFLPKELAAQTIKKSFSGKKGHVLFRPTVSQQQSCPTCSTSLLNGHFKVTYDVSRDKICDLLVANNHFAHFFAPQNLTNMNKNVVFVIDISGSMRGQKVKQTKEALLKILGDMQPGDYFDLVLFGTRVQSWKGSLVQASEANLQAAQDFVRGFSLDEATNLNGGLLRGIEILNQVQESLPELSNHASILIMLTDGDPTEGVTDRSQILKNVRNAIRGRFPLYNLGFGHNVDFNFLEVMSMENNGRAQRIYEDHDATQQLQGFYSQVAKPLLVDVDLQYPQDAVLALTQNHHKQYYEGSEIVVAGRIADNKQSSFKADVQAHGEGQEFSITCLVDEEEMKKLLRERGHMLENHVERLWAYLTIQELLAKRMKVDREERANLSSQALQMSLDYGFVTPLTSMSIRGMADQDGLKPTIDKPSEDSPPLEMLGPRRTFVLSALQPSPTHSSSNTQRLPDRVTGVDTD
Protocol: Covalent transfer of HC from IαI onto unmodified and chemically modified HA oligosaccharides was analyzed using the assay described previously ([26]). All reactions were performed using a buffer of 20 mM Hepes, pH 7.5, 150 mM NaCl, and 5 mM MgCl2. In a “standard” assay, HA oligosaccharides were at 15 μM, human IαI ([97]) 1.8 at μM (based on a molecular weight of 180 kDa), and recombinant human TSG-6 (R&D Systems) at 2.8 μM (based on a molecular weight of 35 kDa). Reaction mixtures were analyzed by SDS-PAGE using 4 to 12% bis-tris polyacrylamide gels (Invitrogen). For Western blot analysis, proteins were transferred onto nitrocellulose membrane (GE Healthcare) and incubated with antisera against HC1 (CP7, 1:10,000; ([98])). Bound primary antibody was detected using goat-anti-rabbit IgG conjugated to IR dye (LI-COR Biosciences) and blots imaged using an Odyssey Clx near-IR fluorescence imaging system (LICOR Biosciences).

Link_TSG6 = target: T3, Link_TSG6 (Homo sapiens, UniProt P98066); assay: ITC of HA oligosaccharides binding to Link_TSG6; conditions: for N: 0.029 mM Link_TSG6, 0.29 mM oligosaccharide; for % Binding affinity Link_TSG6: Table 6, relative to unmodified oligosaccharide of the same length, by ITC
T3 construct: made in house
T3 sequence (P98066 36-129 limits assumed): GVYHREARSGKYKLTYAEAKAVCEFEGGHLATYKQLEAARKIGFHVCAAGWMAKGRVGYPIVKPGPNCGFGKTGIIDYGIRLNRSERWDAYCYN
Protocol: ITC experiments were performed using a MicroCal PEAQ-ITC instrument (Malvern Instruments). Oligosaccharide stock solutions were prepared at 0.29 mM (in 5 mM MES, pH 6.0) and injected (18 × 2 μl with 120 s spacing between injections) into the cell containing ∼200 μl Link_TSG6 (0.029 mM) in matched buffer at 25 °C. Data were fit to a one site binding model, after subtracting the heats from the last three injections to account for heat of dilution of the oligosaccharide into buffer. Each oligosaccharide was analyzed in four independently performed ITC experiments.

[1] = Table 4, ITC, 25 °C, 5 mM MES pH 6.0, mean ± SEM, four titrations
[2] = Table 4, ITC, 25 °C, 5 mM MES pH 6.0, mean ± SEM
[3] = Table 4, ITC, 25 °C, 5 mM MES pH 6.0, mean ± SEM, four titrations, read-out: KD
[4] = Table 1, ITC, 25 °C, 5 mM MES pH 6.0, mean ± SEM, four titrations
[5] = Table 1, ITC, 25 °C, 5 mM MES pH 6.0, mean ± SEM

| SMILES | % of binding to hisCD44_HABD^20–169 compared to the unmodified oligosaccharide of the same length (hisCD44_HABD^20–169; MST) | % Binding affinity hisCD44_HABD^20–169 (hisCD44_HABD^20–169) | Substrate for HC transfer (recombinant human TSG-6) | N (Link_TSG6; [1]) | ΔG (Link_TSG6; [2]) | ΔH (Link_TSG6; [2]) | −TΔS (Link_TSG6; [2]) | % Binding affinity Link_TSG6 (Link_TSG6) | % HAx^AN: percentage of binding affinity (KB) compared to the unmodified oligosaccharide of the same length (hisCD44_HABD^20–169; Table 5, MST) | Kd (hisCD44_HABD^20–169; Table 5, MST, mean ± SD) | Activity as substrate for HC transfer (text) (recombinant human TSG-6) | Kd (Link_TSG6; [3]) | further results |
| --- | --- | --- | --- | --- | --- | --- | --- | --- | --- | --- | --- | --- | --- |
| CC(=O)N[C@H]1[C@H](O[C@H]2[C@H](O)[C@@H](O)[C@H](O[C@@H]([C@H](O)[C@H](O)CO)[C@H](CNc3cccc(C(=O)O)c3)NC(C)=O)O[C@@H]2C(=O)O)O[C@H](CO)[C@@H](O)[C@@H]1O[C@@H]1O[C@H](C(=O)O)[C@@H](O)[C@H](O)[C@H]1O [HA4-3AA] | 260% | 260% | No |  |  |  |  |  |  |  |  |  | % HAn^AN: percentage of binding affinity (KB) compared to the unmodified oligosaccharide of the same length (hisCD44_HABD^20–169; Table 2, MST): 260%; Kd (hisCD44_HABD^20–169; Table 2, MST, mean (±SD)): 845 µM |
| COc1ccc(C(=O)O)c(NC[C@H](NC(C)=O)[C@@H](O[C@@H]2O[C@H](C(=O)O)[C@@H](O[C@@H]3O[C@H](CO)[C@@H](O)[C@H](O[C@@H]4O[C@H](C(=O)O)[C@@H](O[C@@H]5O[C@H](CO)[C@@H](O)[C@H](O[C@@H]6O[C@H](C(=O)O)[C@@H](O)[C@H](O)[C@H]6O)[C@H]5NC(C)=O)[C@H](O)[C@H]4O)[C@H]3NC(C)=O)[C@H](O)[C@H]2O)[C@H](O)[C@H](O)CO)c1 [HA6-2A4MBA] | 52% | 52% | Yes | 1.00 ± 0.02 | -8.64 ± 0.04 kcal/mol | -10.07 ± 0.28 kcal/mol | 1.44 ± 0.25 kcal•mol^a1 | 238% | 52% | 198 ± 29 µM | weak substrates; also recorded: could become covalently coupled to an HC |  | % of binding to Link_TSG6 compared to the unmodified oligosaccharide of the same length (Link_TSG6; ITC): 238%; Fold increase in affinity for Link_TSG6 compared to the unmodified oligosaccharide (Link_TSG6; ITC): 2.4 fold; Kd (Link_TSG6; ITC, read-out: KD for Link_TSG6): 0.46 µM |
| CC(=O)N[C@H]1[C@H](O[C@H]2[C@H](O)[C@@H](O)[C@H](O[C@H]3[C@H](O)[C@@H](CO)O[C@@H](O[C@H]4[C@H](O)[C@@H](O)[C@H](O[C@@H]([C@H](O)[C@H](O)CO)[C@H](CNc5cc[nH]n5)NC(C)=O)O[C@@H]4C(=O)O)[C@@H]3NC(C)=O)O[C@@H]2C(=O)O)O[C@H](CO)[C@@H](O)[C@@H]1O[C@@H]1O[C@H](C(=O)O)[C@@H](O)[C@H](O)[C@H]1O [HA6-3APY] | 91% | 91% | Yes | 0.93 ± 0.02 | -7.77 ± 0.15 kcal/mol | -7.82 ± 0.73 kcal/mol | 0.04 ± 0.87 kcal•mol^a1 | 49% | 91% | 113 ± 6 µM | good substrates; also recorded: could become covalently coupled to an HC | 2.24 ± 0.68 µM |  |
| CC(=O)N[C@H]1[C@H](O[C@H]2[C@H](O)[C@@H](O)[C@H](O[C@H]3[C@H](O)[C@@H](CO)O[C@@H](O[C@H]4[C@H](O)[C@@H](O)[C@H](O[C@@H]([C@H](O)[C@H](O)CO)[C@H](CNc5cccc6c5CCC6)NC(C)=O)O[C@@H]4C(=O)O)[C@@H]3NC(C)=O)O[C@@H]2C(=O)O)O[C@H](CO)[C@@H](O)[C@@H]1O[C@@H]1O[C@H](C(=O)O)[C@@H](O)[C@H](O)[C@H]1O [HA6-4AI] | 28% | 28% | No | 0.97 ± 0.03 | -7.98 ± 0.03 kcal/mol | -7.16 ± 0.32 kcal/mol | −0.82 ± 0.30 kcal•mol^a1 | 77% | 28% | 369 ± 43 µM | No HC•HA6 complexes were observed | 1.42 ± 0.06 µM |  |
| CC(=O)N[C@H]1[C@H](O[C@H]2[C@H](O)[C@@H](O)[C@H](O[C@H]3[C@H](O)[C@@H](CO)O[C@@H](O[C@H]4[C@H](O)[C@@H](O)[C@H](O[C@@H]([C@H](O)[C@H](O)CO)[C@H](CNc5ccc6c(c5)CCC6)NC(C)=O)O[C@@H]4C(=O)O)[C@@H]3NC(C)=O)O[C@@H]2C(=O)O)O[C@H](CO)[C@@H](O)[C@@H]1O[C@@H]1O[C@H](C(=O)O)[C@@H](O)[C@H](O)[C@H]1O [HA6-5AI] | 133% | 133% | No | 1.03 ± 0.02 | -8.43 ± 0.08 kcal/mol | -7.46 ± 0.37 kcal/mol | −0.96 ± 0.42 kcal•mol^a1 | 162% | 133% | 77 ± 12 µM | No HC•HA6 complexes were observed | 0.68 ± 0.08 µM | % of binding to Link_TSG6 compared to the unmodified oligosaccharide of the same length (Link_TSG6; ITC): ~162%; Fold increase in affinity for CD44_HABD compared to the unmodified oligosaccharide (hisCD44_HABD^20–169; MST): 1.3 fold |
| CC(=O)N[C@H]1[C@H](O[C@H]2[C@H](O)[C@@H](O)[C@H](O[C@H]3[C@H](O)[C@@H](CO)O[C@@H](O[C@H]4[C@H](O)[C@@H](O)[C@H](O[C@H]5[C@H](O)[C@@H](CO)O[C@@H](O[C@H]6[C@H](O)[C@@H](O)[C@H](O[C@@H]([C@H](O)[C@H](O)CO)[C@H](CNc7cccc(C(=O)O)c7)NC(C)=O)O[C@@H]6C(=O)O)[C@@H]5NC(C)=O)O[C@@H]4C(=O)O)[C@@H]3NC(C)=O)O[C@@H]2C(=O)O)O[C@H](CO)[C@@H](O)[C@@H]1O[C@@H]1O[C@H](C(=O)O)[C@@H](O)[C@H](O)[C@H]1O [HA8-3AA] |  |  | Yes |  |  |  |  |  |  |  |  |  | N (Link_TSG6; [4]): 1.05 ± 0.03; ΔG (Link_TSG6; [5]): -8.95 ± 0.13 kcal/mol; ΔH (Link_TSG6; [5]): -8.53 ± 0.33 kcal/mol; −TΔS (Link_TSG6; [5]): -0.60 ± 0.09 kcal/mol |
| CC(=O)N[C@H]1[C@H](O[C@H]2[C@H](O)[C@@H](O)[C@H](O[C@H]3[C@H](O)[C@@H](CO)O[C@@H](O[C@H]4[C@H](O)[C@@H](O)[C@H](O[C@H]5[C@H](O)[C@@H](CO)O[C@@H](O[C@H]6[C@H](O)[C@@H](O)[C@H](O[C@@H]([C@H](O)[C@H](O)CO)[C@H](CNc7ccc(C(=O)O)cc7)NC(C)=O)O[C@@H]6C(=O)O)[C@@H]5NC(C)=O)O[C@@H]4C(=O)O)[C@@H]3NC(C)=O)O[C@@H]2C(=O)O)O[C@H](CO)[C@@H](O)[C@@H]1O[C@@H]1O[C@H](C(=O)O)[C@@H](O)[C@H](O)[C@H]1O [HA8-4AA] |  |  | Yes |  |  |  |  |  |  |  | somewhat weaker substrate than HA8^AN |  | N (Link_TSG6; [4]): 0.86 ± 0.02; ΔG (Link_TSG6; [5]): -8.37 ± 0.04 kcal/mol; ΔH (Link_TSG6; [5]): -11.53 ± 0.25 kcal/mol; −TΔS (Link_TSG6; [5]): 3.17 ± 0.26 kcal/mol |
